Laboratory results published in US20050250819A1 (priority 2004, published 2005).
pIC50: −log10 of the molar value.

system: Type III-dependent secretion of ExoU by P. aeruginosa PA103; assay: Tertiary assay: Type III-dependent secretion of ExoU by P. aeruginosa PA103; format: cell-based; settings: Pseudomonas aeruginosa, ExoU secreted into extracellular medium
Source text: Tertiary assay: inhibition of Type III protein secretion of effectors from a Pseudomonas aeruginosa system. Type III protein secretion is used by P. aeruginosa to secrete several essential virulence determinants. One effector of the type III protein secretion system of P. aeruginosa PA103 is the virulence determinants ExoU.
The amount of Type III-dependent secretion of ExoU by P. aeruginosa PA103 can be determined in a cell-based assay by quantification of the 73.9 kDa ExoU protein secreted into the extracellular medium. Such quantitation can be achieved by growing strain PA103 in a deferrated medium in the presence of nitrilotriacetic acid (an inducer of Type III protein secretion in P. aeruginosa) and either in the presence or absence of putative inhibitors. After a prolonged growth period, the cells are sedimented and the supernatants concentrated by ammonium sulfate precipitation. The proteins in the resuspended pellets are separated by electrophoresis on SDS-polyacrylamide gels. After staining gels with Colloidal Blue™, the 73.9 kDa ExoU band is quantitated by scanning through an imager. The effects of inhibitors on the intensity of the ExoU band may be measured relative to that of untreated controls.

**Q.** How did the pIC50 turn out when O=C(N[C@@H](Cc1ccc(Cl)cc1)C(=O)O)/C(=C\c1cccc(C(F)(F)F)c1)NC(=O)c1ccc(-c2ccccc2)cc1 [Compound 38, (S)-2-[2-[(Biphenyl-4-carbonyl)amino]-3-(3-trifluoromethylphenyl)acryloylamino]-3-(4-chlorophenyl)propionic acid] was run?
**A.** 4.76

**Q.** How did the pIC50 turn out when O=C(N[C@@H](CSCc1ccccc1)C(=O)O)/C(=C\c1cccc(Oc2ccccc2)c1)NC(=O)c1ccc(I)cc1 [Compound 21, (R)-3-Benzylsulfanyl-2-[2-(4-iodobenzoylamino)-3-(3-phenoxyphenyl)-acryloylamino]propionic acid] was run?
**A.** 4.16

**Q.** O=C(N[C@@H](CSCc1ccccc1)C(=O)O)/C(=C\c1cccc(Oc2ccc(Cl)cc2)c1)NC(=O)c1ccc(C(F)(F)F)cc1 [Compound 40, (R)-3-Benzylsulfanyl-2-[3-[3-(4-chlorophenoxy)phenyl]-2-(4-trifluoromethyl-benzoylamino)acryloylamino]propionic acid] was tested. Which pIC50 did it give?
**A.** 4.88

**Q.** O=C(O)C[C@@H](CNC(=O)/C(=C\c1cccc(C(F)(F)F)c1)NC(=O)c1ccc(-c2ccccc2)cc1)c1ccc(Cl)cc1 [Compound 62, (R)-4-[2-[(Biphenyl-4-carbonyl)amino]-3-(3-trifluoromethylphenyl)acryloylamino]-3-(4-chlorophenyl)butyric acid] was tested. Which pIC50 did it give?
**A.** 4.06

**Q.** O=C(NC(CCSCc1ccccc1)C(=O)O)/C(=C\c1ccc(-c2ccccc2)cc1)NC(=O)c1ccc(C(F)(F)F)cc1 (stereo not drawn) [Compound 122] was tested. Which pIC50 did it give?
**A.** 4.60

**Q.** How did the pIC50 turn out when O=C(N[C@@H](COCc1ccccc1)C(=O)O)/C(=C\c1ccc(Cl)c(Cl)c1)NC(=O)c1ccc(-c2ccccc2)cc1 [Compound 26, (S)-3-Benzyloxy-2-[2-[(biphenyl-4-carbonyl)amino]-3-(3,4-dichlorophenyl)-acryloylamino]propionic acid] was run?
**A.** 4.62

**Q.** O=C(N[C@@H](CSCc1ccccc1)C(=O)O)/C(=C\c1ccc(I)cc1)NC(=O)C1CCN(c2nccc(C(F)(F)F)n2)CC1 [Compound 76, (R)-3-Benzylsulfanyl-2-(3-(4-iodophenyl)-2-{[1-(4-trifluoromethylpyrimidin-2-yl)-piperidine-4-carbonyl]amino}acryloylamino)propionic acid] was tested. Which pIC50 did it give?
**A.** 4.25

**Q.** With O=C(N[C@@H](CSCc1ccccc1)C(=O)O)/C(=C\c1ccc(Oc2ccc(Cl)cc2)cc1)NC(=O)c1ccc(C(F)(F)F)cc1 [Compound 58, (R)-3-Benzylsulfanyl-2-[3-[4-(4-chlorophenoxy)phenyl]-2-(4-trifluoromethyl-benzoylamino)acryloylamino]propionic acid] as the compound, how does the pIC50 read?
**A.** 4.31

**Q.** How did the pIC50 turn out when O=C(NC(Cc1ccc(Cl)cc1)C(=O)O)/C(=C\c1cccc(C(F)(F)F)c1)NC(=O)c1ccc(-c2ccccc2)cc1 (stereo not drawn) [Compound 97] was run?
**A.** 4.89

**Q.** With O=C(N[C@@H](CSCc1ccccc1)C(=O)O)/C(=C\c1ccc(Cl)c(Cl)c1)NC(=O)c1ccc(C(F)(F)F)cc1 [Compound 140] as the compound, how does the pIC50 read?
**A.** 4.32

**Q.** With O=C(N[C@@H](CCSCc1ccccc1)C(=O)O)/C(=C\c1ccc(-c2ccccc2)cc1)NC(=O)c1ccc(C(F)(F)F)cc1 [Compound 7, (S)-4-Benzylsulfanyl-2-[3-biphenyl-4-yl-2-(4-trifluoromethylbenzoylamino)-acryloylamino]butyric acid] as the compound, how does the pIC50 read?
**A.** 4.51

**Q.** With O=C(N[C@@H](CSCc1ccccc1)C(=O)O)/C(=C\c1ccc(OCc2ccccc2)cc1)NC(=O)c1ccc(C(F)(F)F)cc1 [Compound 1, (R)-2-[3-(4-Benzyloxyphenyl)-2-(4-trifluoromethylbenzoylamino)acryloylamino]-3-benzylsulfanylpropionic acid] as the compound, how does the pIC50 read?
**A.** 4.94

**Q.** With O=C(N[C@@H](CSCc1ccccc1)C(=O)O)/C(=C\c1ccc(Cl)cc1Cl)NC(=O)c1ccc(C(F)(F)F)cc1 [Compound 154] as the compound, how does the pIC50 read?
**A.** 4.58

**Q.** O=C(N[C@@H](CSCc1ccccc1)C(=O)O)/C(=C\c1ccc(Cl)c(Cl)c1)NC(=O)C1CCN(c2nccc(C(F)(F)F)n2)CC1 [Compound 74, (R)-3-Benzylsulfanyl-2-(3-(3,4-dichlorophenyl)-2-{[1-(4-trifluoromethylpyrimidin-2-yl)piperidine-4-carbonyl]amino}acryloylamino)propionic acid] was tested. Which pIC50 did it give?
**A.** 4.47

**Q.** O=C(N[C@@H](CSCc1ccccc1)C(=O)O)/C(=C\c1ccc(Oc2ccc(F)cc2)cc1)NC(=O)c1ccc(C(F)(F)F)cc1 [Compound 57, (R)-3-Benzylsulfanyl-2-[3-[4-(4-fluorophenoxy)phenyl]-2-(4-trifluoromethyl-benzoylamino)acryloylamino]propionic acid] was tested. Which pIC50 did it give?
**A.** 4.46

**Q.** How did the pIC50 turn out when O=C(N[C@@H](CSCc1ccccc1)C(=O)O)/C(=C\c1ccc2ccccc2c1)NC(=O)c1ccc(C(F)(F)F)cc1 [Compound 35, (R)-3-Benzylsulfanyl-2-[3-naphthalen-2-yl-2-(4-trifluoromethylbenzoylamino)-acryloylamino]propionic acid] was run?
**A.** > 4.90

**Q.** CC(C)c1ccc(/C=C(/NC(=O)c2ccc(C(F)(F)F)cc2)C(=O)N[C@@H](CSCc2ccccc2)C(=O)O)cc1 [Compound 34, (R)-3-Benzylsulfanyl-2-[3-(4-isopropylphenyl)-2-(4-trifluoromethyl-benzoylamino)acryloylamino]propionic acid] was tested. Which pIC50 did it give?
**A.** 4.30

**Q.** How did the pIC50 turn out when O=C(N[C@@H](CSCc1ccccc1)C(=O)O)/C(=C\c1ccc(OC(F)(F)F)cc1)NC(=O)C1CCN(c2nccc(C(F)(F)F)n2)CC1 [Compound 84, (R)-3-Benzylsulfanyl-2-(3-(4-trifluoromethoxyphenyl)-2-{[1-(4-trifluoromethyl-pyrimidin-2-yl)piperidine-4-carbonyl]amino}acryloylamino)propionic acid] was run?
**A.** 4.24

**Q.** O=C(N[C@@H](COCc1ccccc1)C(=O)O)/C(=C\c1ccc(Cl)c(Cl)c1)NC(=O)c1ccc(Oc2ccccc2)cc1 [Compound 49, (S)-3-Benzyloxy-2-[3-(3,4-dichlorophenyl)-2-(4-phenoxybenzoylamino)-acryloylamino]propionic acid] was tested. Which pIC50 did it give?
**A.** 4.12

**Q.** O=C(N[C@H](COCc1ccccc1)C(=O)O)/C(=C\c1cccc(C(F)(F)F)c1)NC(=O)C1CCN(c2nccc(C(F)(F)F)n2)CC1 [Compound 77, (R)-3-Benzyloxy-2-(3-(3-trifluoromethylphenyl)-2-{[1-(4-trifluoromethylpyrimidin-2-yl)-piperidine-4-carbonyl]amino}acryloylamino)propionic acid] was tested. Which pIC50 did it give?
**A.** 4.22

**Q.** With O=C(N[C@H](COCc1ccccc1)C(=O)O)/C(=C\c1ccc(Cl)c(Cl)c1)NC(=O)c1ccc(OC(F)(F)F)cc1 [Compound 30, (R)-3-Benzyloxy-2-[3-(3,4-dichlorophenyl)-2-(4-trifluoromethoxybenzoylamino)-acryloylamino]propionic acid] as the compound, how does the pIC50 read?
**A.** 4.27

**Q.** How did the pIC50 turn out when O=C(N[C@@H](CSCc1ccccc1)C(=O)O)/C(=C\c1ccc(OC(F)(F)F)cc1)NC(=O)c1ccc(I)cc1 [Compound 22, (R)-3-Benzylsulfanyl-2-[2-(4-iodobenzoylamino)-3-(4-trifluoromethoxyphenyl)-acryloylamino]propionic acid] was run?
**A.** 4.33

**Q.** How did the pIC50 turn out when O=C(N[C@@H](CSCc1ccccc1)C(=O)O)/C(=C\c1ccc(Oc2ccccc2)cc1)NC(=O)c1ccc(Br)cc1 [Compound 20, (R)-3-Benzylsulfanyl-2-[2-(4-bromobenzoylamino)-3-(4-phenoxyphenyl)-acryloylamino]propionic acid] was run?
**A.** 4.43

**Q.** With O=C(N[C@H](Cc1ccc(Cl)cc1)C(=O)O)/C(=C\c1cccc(C(F)(F)F)c1)NC(=O)c1ccc(-c2ccccc2)cc1 [Compound 39, (R)-2-[2-[(Biphenyl-4-carbonyl)amino]-3-(3-trifluoromethylphenyl)acryloylamino]-3-(4-chlorophenyl)propionic acid] as the compound, how does the pIC50 read?
**A.** 4.77

**Q.** O=C(NC(COCc1ccccc1)C(=O)O)/C(=C\c1ccc(Cl)cc1Cl)NC(=O)c1ccc(-c2ccccc2)cc1 (stereo not drawn) [Compound 103] was tested. Which pIC50 did it give?
**A.** 4.74

**Q.** O=C(N[C@@H](CSCc1ccccc1)C(=O)O)/C(=C\c1cccc(Br)c1)NC(=O)c1ccc(Oc2ccccc2)cc1 [Compound 48, (R)-3-Benzylsulfanyl-2-[3-(3-bromophenyl)-2-(4-phenoxybenzoylamino)-acryloylamino]propionic acid] was tested. Which pIC50 did it give?
**A.** 4.61

**Q.** How did the pIC50 turn out when O=C(NC(COCc1ccccc1)C(=O)O)/C(=C\c1ccc(-c2ccccc2)cc1)NC(=O)c1ccc(C(F)(F)F)cc1 (stereo not drawn) [Compound 133] was run?
**A.** 4.00

**Q.** With O=C(N[C@H](COCc1ccccc1)C(=O)O)/C(=C\c1ccc(I)cc1)NC(=O)C1CCN(c2nccc(C(F)(F)F)n2)CC1 [Compound 75, (R)-3-Benzyloxy-2-(3-(4-iodophenyl)-2-{[1-(4-trifluoromethylpyrimidin-2-yl)-piperidine-4-carbonyl]amino}acryloylamino)propionic acid] as the compound, how does the pIC50 read?
**A.** 4.18

**Q.** With O=C(N[C@@H](CSCc1ccccc1)C(=O)O)/C(=C\c1ccc(Cl)cc1Cl)NC(=O)c1ccc(-c2ccccc2)cc1 [Compound 102] as the compound, how does the pIC50 read?
**A.** 4.40

**Q.** O=C(N[C@H](COCc1ccccc1)C(=O)O)/C(=C\c1ccc(OC(F)(F)F)cc1)NC(=O)C1CCN(c2nccc(C(F)(F)F)n2)CC1 [Compound 83, (R)-3-Benzyloxy-2-(3-(4-trifluoromethoxyphenyl)-2-{[1-(4-trifluoromethyl-pyrimidin-2-yl)piperidine-4-carbonyl]amino}acryloylamino)propionic acid] was tested. Which pIC50 did it give?
**A.** 4.07
